The results in this text go back to ChEMBL document CHEMBL1201862, “PubChem BioAssay data set” (2004).

Common to all, as to experiment: NCI anticancer screen, dose series, 48 h
Experiment [1] concerns 786-0.
The subject of experiment [2] is ACHN.
Experiment [3] relates to COLO 205.
Experiment [4] deals with DU-145.
In experiment [5] the test system is HOP-62.
Experiment [6] concerns HOP-92.
In experiment [7] the test system is IGROV-1.
The subject of experiment [8] is K562.
Experiment [9] deals with LOX IMVI.
The test system of experiment [10] is MDA-MB-435.
For experiment [11], the system named is MOLT-4.
Experiment [12] relates to Malme-3M.
Experiment [13] deals with NCI-H23.
In experiment [14] the test system is NCI-H460.
Experiment [15] deals with OVCAR-4.
For experiment [16], the system named is OVCAR-5.
The test system of experiment [17] is RPMI-8226.
Experiment [18] has as its system SF-295.
Experiment [19] relates to SNB-75.
Experiment [20] has as its system T47D.

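Tested at 5 concentrations; 48 h exposure; 96-well plates; endpoints linearly interpolated, else capped at highest concentration. At the GI50, growth is halved.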 Activity calls are given as the source filed them. No stated cut-off is given here; in the data, active = GI50 up to about 1.1 µM and inactive = higher. A value given as a limit tells only on which side of the number the result lay.

`N=c1nc(N)c2cc3c(N)nc(=N)c3cc12`: the GI50 in experiment [1] was 4.86 µM (inactive); in experiment [2] it was 63.5 µM (inactive); in experiment [3], > 91.8 µM (inactive); in experiment [4], 30.5 µM (inactive); in [5], 12.4 µM (inactive); in experiment [6], 3.94 µM (inactive). Also, the GI50 in experiment [7] is > 100 µM (inactive); in experiment [8], 2.2 µM (inactive); in experiment [9], 2.49 µM (inactive); in [10] it was 3.19 µM (inactive); in experiment [11], 4.07 µM (inactive); in [12], 2.95 µM (inactive). Besides, the GI50 in [13] was 35.3 µM (inactive); in [14], 22.5 µM (inactive); in experiment [15] it was 15.4 µM (inactive); in experiment [16], 19.1 µM (inactive); in experiment [17] it was 3.13 µM (inactive); in [18], 14.9 µM (inactive). For the same compound, the values for the GI50 in [19] and in experiment [20] were 8.09 µM (inactive) and 8.51 µM (inactive), respectively.
In the case of `O=[N+]([O-])c1ccc2c(c1)c1nn2CCCCOc2nn(c3ccc([N+](=O)[O-])cc23)CCCCO1`, the GI50 in [1] was > 100 µM (inactive); in [2], > 100 µM (inactive); in experiment [3], > 100 µM (inactive); in [4], > 100 µM (inactive); in experiment [5], 0.743 µM (active); in experiment [6] it was > 100 µM (inactive). Besides, the GI50 in experiment [7], in experiment [8], in experiment [9], in experiment [10], in experiment [11] and in [12] was > 100 µM (inactive) in each case. The GI50 in experiment [13], in experiment [14], in [15], in experiment [16], in experiment [17] and in [18] was > 100 µM (inactive) each time. For the same compound, the GI50 in experiment [19] and in [20] was > 100 µM (inactive) in each case.
Take `CC(C)(C)c1cc(/C=C(\C#N)C2=NCCO2)cc(C(C)(C)C)c1O`: the GI50 in experiment [1] is 3.28 µM (inactive); in experiment [2] it was 3.56 µM (inactive); in experiment [3], 1.91 µM (inactive); in experiment [4] it was 4.94 µM (inactive); in experiment [5] it was 4.3 µM (inactive); in experiment [6], 4.06 µM (inactive). Further, the GI50 was 6.58 µM (inactive) in experiment [7]; 3.59 µM (inactive) in [8]; 5.96 µM (inactive) in experiment [9]; 4.47 µM (inactive) in experiment [10]; 3.37 µM (inactive) in experiment [11]; 7.26 µM (inactive) in experiment [12]. The GI50 in experiment [13] is 3.44 µM (inactive); in [14] it was 2.51 µM (inactive); in experiment [15], 3.13 µM (inactive); in experiment [16], 2.89 µM (inactive); in experiment [17], 1.86 µM (inactive); in [18], 2.86 µM (inactive). For the same compound, the GI50 is 2.42 µM (inactive) in experiment [19] and 2.64 µM (inactive) in experiment [20].
As for `CN(C)Cc1cc(/N=N/c2cccc(Cl)c2)ccc1O`, the GI50 was 13.8 µM (inactive) in [1]; 3.29 µM (inactive) in experiment [2]; 19.5 µM (inactive) in experiment [3]; 6.9 µM (inactive) in experiment [4]; 10.2 µM (inactive) in experiment [5]; 6.78 µM (inactive) in experiment [6]. The GI50 in [7] is 10.9 µM (inactive); in experiment [8] it was 3.27 µM (inactive); in [9], 4.16 µM (inactive); in experiment [10], 4.22 µM (inactive); in [11], 13.2 µM (inactive); in experiment [12], 16.7 µM (inactive). The GI50 is 19.9 µM (inactive) in [13]; 12.8 µM (inactive) in [14]; 9.86 µM (inactive) in experiment [15]; 14.9 µM (inactive) in experiment [16]; 18.8 µM (inactive) in experiment [17]; 14.7 µM (inactive) in [18]. Moreover, the figures for the GI50 in [19] and in experiment [20] were 16.1 µM (inactive) and 6.7 µM (inactive), respectively.
